Measured values taken from patent US20150190470A1, “COMBINATION THERAPY” (TETRALOGIC PHARMACEUTICALS CORPORATION, priority 2012, published 2015).

Experiments:
[1] = tested on: human peripheral blood mononuclear cells (PBMCs); experiment: Ex-vivo treatment of PBMCs with GM-CSF; cytokine concentration in culture supernatants by ELISA; format: cell-based
Experimental: Peripheral blood mononuclear cells (PBMC) were isolated from two healthy male donors using BD Vacutainer® CPT cell preparation tubes (Becton, Dickinson and Company, Franklin Lakes N.J. 07417, REF 362753) according to manufacturer's protocol. After isolation, mononuclear cell layer was removed from CPT tube and transferred to a sterile 15 mL centrifuge tube. Cells were washed by adding 10 mL of Dulbecco's Modified Eagle Medium (DMEM) containing 10% fetal bovine serum (FBS) to cells, tube was inverted several times to mix and cells were pelleted by centrifugation at 1500 RPM for 10 minutes. Following centrifugation, media was removed and cells were resuspended in DMEM containing 10% FBS to a concentration of 1×10^6 cells/mL. Cells were next seeded into 6-well dishes at 1×10^6 cells/mL in 2 mL/well. Following 2 hr incubation at 37° C./5% CO2, human recombinant GM-CSF (R&D Systems, Minneapolis Minn. 55413, Catalog # #215-GM) was added to cells at indicated concentrations. Following overnight incubation at 37° C./5% CO2, media was collected into sterile 15 mL centrifuge tubes and cells were removed by centrifugation at 1500 RPM for 10 minutes. Media was transferred to new, sterile tubes and frozen at −80° C. until use.
TNFα concentration in culture supernatants was determined by ELISA (BD OptEIA TNF kit II) according to manufacturer's recommendations. Absorbance values were analyzed using GraphPad Prism linear regression analysis and reported as pg/mL TNFα.
In a first extension of the preceding study, substantially the same experiment was carried out with PBMCs from two additional donors, Donors 3 and 4. In this first extension study, cells were treated with GM-CSF, GM-CSF+1.0 uM birinapant.
In a second extension study, substantially the same experiment was subsequently carried out with new PBMC culture supernatants from Donors 1, 3, and 4.

[2] = tested on: Mouse renal carcinoma (RenCa) cells; experiment: Viability of RenCa cells (MTT) with birinapant plus TNFα or mouse GM-CSF; format: cell-based; conditions: in combination with birinapant, TNFα 0.000001 to 100 ng/mL or mouse GM-CSF 0.001 to 10 ng/mL, 24 h
Experimental: Mouse renal carcinoma (RenCa) cells were seeded into 96-well plates at a density of 10,000 cells/well and allowed to adhere overnight. On the next day, birinapant alone or in combination with varying concentrations of TNFα (R&D systems) (0.000001 to 100 ng/mL) or mouse GM-CSF (R&D Systems) (0.001 to 10 ng/mL) were added. Following a 24 h incubation, viability was assessed by MTT assay.

[3] = human, in vivo
Text: In general, Compound 15 can be administered once, twice or three times per week for one to four weeks (or longer). In some situations a treatment interval may be followed by a rest interval. A suitable rest interval includes but is not limited to one week. […] It should be understood that the “on” weeks are consecutive weeks, i.e., two consecutive weeks on drug, three consecutive weeks on drug, and four consecutive weeks (or more) on drug.

[4] = tested on: MDA-MB-231 cells (human breast cancer), Smac mimetic resistant variant; experiment: Viability of MDA-MB-231 cells (MTT) with PBMC culture supernatants and Compound 15; format: cell-based; conditions: 1 μM Compound 15 with supernatant of 1 ng/mL GM-CSF-treated Donor 1 PBMC culture, 24 hr, FIG. 3(a)
Experimental: MDA-MB-231 cells (human breast cancer) were seeded into 96-well plates at a density of 10,000 cells/well and allowed to adhere overnight. Next day, culture supernatants from untreated Donor 1 PBMC culture or 1 ng/mL GM-CSF-treated Donor 1 PBMC culture was added to MDA-MB-231 cells in the presence or absence of 1 μM Compound 15, 1 μM Compound 15 plus TNFα neutralizing antibody (R&D Systems #MAB610, 10 μg/mL), 1 μM Compound 15 plus TRAIL neutralizing antibodies (R&D Systems #374-DR and 631-T2, 100 ng/ml each) or 1 μM Compound 15 plus both TNFα and TRAIL neutralizing antibodies. All antibodies were tested in the absence of Compound 15 as control. Viability of MDA-MB-231 cells was measured following 24 hr incubation at 37° C./5% CO2 by MTT (3-(4,5-dimethylthiazol-2-yl)-2,5-diphenyltetrazolium bromide) assay substantially as described in Hansen, M. B., Nielsen, S. E., and Berg, K. (1989) J. Immunol. Methods 119, 203-210.
In an extension study, substantially the same experiment was carried out with culture supernatants from two additional donors, Donors 3 and 4, excluding treatment with the combination of anti-TNFα and anti-TRAIL antibodies.

RenCa cells = experiment: Survival of BALB/c mice inoculated with RenCa cells; format: in vivo; conditions: female BALB/c mice, RenCa cells on each flank; qdX5 each week for 4 weeks; birinapant 15 mg/Kg IP, mGM-CSF 10 mg IP
Experimental: 40 female BALB/c mice (10 per treatment group) were inoculated with 1×10^5 RenCa cells on each flank. The mice were subsequently treated qdX5 each week for 4 consecutive weeks with birinapant, mGM-CSF, birinapant and mGM-CSF, or a vehicle control. Each dose of birinapant was 15 mg/Kg IP and each dose of mGM-CSF was 10 mg IP.

For “GM-CSF: Granulocyte macrophage colony-stimulating factor; human recombinant GM-CSF (R&D Systems) in Example 1”, the “expression and secretion of TNFα by PBMCs” value (“expression and secretion” below) ([1]; Donors 1 and 2, overnight incubation with GM-CSF, ELISA, FIGS. 1(a),(b)) was “increased expression and secretion of TNFα”, the “expression and secretion” value ([1]; first extension study, Donors 3 and 4, FIGS. 1(c),(d)) was “increased expression and secretion of TNFα” and the “expression and secretion” value ([1]; second extension study, new PBMC culture supernatants from Donors 1, 3 and 4, FIGS. 2(a)-(c)) was “increased expression and secretion of TNFα”. The RenCa cell viability [2] was “unaffected”.

With TNFα [reference compound] the RenCa cell viability [2] was “decreased in direct relation to the concentration of TNFα”.

In the case of `CC[C@H](NC(=O)[C@H](C)NC)C(=O)N1C[C@@H](O)C[C@H]1Cc1c(-c2[nH]c3cc(F)ccc3c2C[C@@H]2C[C@H](O)CN2C(=O)[C@H](CC)NC(=O)[C@H](C)NC)[nH]c2cc(F)ccc12` [Compound 15, N-{1S-[2R-(6,6′-Difluoro-3′-{4S-hydroxy-1-[2S-(2S-methylamino-propionylamino)-butyryl]-pyrrolidin-2R-ylmethyl}-1H,1′H-[2,2′]biindolyl-3-ylmethyl)-4S-hydroxy-pyrrolidine-1-carbonyl]-propyl}-2S-methylamino-propionamide], the “half-life in the patient” value [3] is reported as “long half-life”, the “viability of MDA-MB-231 cells / induction of apoptosis” value [4] is reported as “sensitization of MDA-MB-231 Smac mimetic resistant variant to Compound 15” and the “time to which 50% of mice survived” value (RenCa cells) is reported as “approximately 40 days”.

B1: mGM-CSF: mouse GM-CSF (R&D Systems) (protein, UniProt P01587 18-141, looked up)
Granulocyte-macrophage …: APTRSPITVTRPWKHVEAIKEALNLLDDMPVTLNEEVEVVSNEFSFKKLTCVQTRLKIFEQGLRGNFTKLKGALNMTASYYQTYCPPTPETDCETQVTTYADFIDSLKTFLTDIPFECKKPGQK
With B1 the “time to which 50% of mice survived” value (RenCa cells) was “approximately 30 days”.
